Results reported in PMC10066365, “Nemacol is a small molecule inhibitor of C. elegans vesicular acetylcholine transporter with anthelmintic potential” (Nature Communications, 2023).
Read-outs that look alike come from different tables or passages of the source.

How the values were obtained:
[1] = target: T1, rat VAChT (Rattus norvegicus, UniProt Q62666); experiment: [3H]Vesamicol competitive radioligand binding, PC12 cells expressing ratVAChT; conditions: ratVAChT Ki, [3H]Vesamicol displacement, mean
T1 construct: expressed in transfected cells; host or cells: rat PC12 (PC12 A123.7) cells, stably transfected; shared by Dr. Ali Roghani (Texas Tech University)
T1 sequence (Q62666 1-530): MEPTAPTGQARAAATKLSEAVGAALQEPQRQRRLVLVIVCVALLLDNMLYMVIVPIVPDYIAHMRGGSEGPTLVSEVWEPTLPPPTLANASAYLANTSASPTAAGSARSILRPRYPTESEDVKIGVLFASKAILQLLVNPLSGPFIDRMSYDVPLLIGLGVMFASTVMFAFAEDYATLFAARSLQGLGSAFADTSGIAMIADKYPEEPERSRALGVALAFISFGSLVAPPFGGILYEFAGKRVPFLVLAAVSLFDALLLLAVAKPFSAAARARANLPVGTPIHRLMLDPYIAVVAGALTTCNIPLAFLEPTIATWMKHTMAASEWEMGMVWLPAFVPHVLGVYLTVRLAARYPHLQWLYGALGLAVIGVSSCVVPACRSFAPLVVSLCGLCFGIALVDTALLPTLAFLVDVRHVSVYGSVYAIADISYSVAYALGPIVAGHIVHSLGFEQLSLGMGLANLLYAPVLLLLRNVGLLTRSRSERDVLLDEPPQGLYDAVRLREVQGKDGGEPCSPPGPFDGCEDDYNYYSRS

[2] = tested on: C. elegans unc-17 mutants; conditions: 60 min, average of 3 biological repeats
Experimental: Significance was calculated using Fisher’s method (one-sided comparisons; see 'Methods'). […] Worms were incubated on the plates for 60 min.
Locomotor phenotype analyses were done in 24-well plates with 1 mL of MYOB substrate (27.5 g Trizma HCl, 12 g Trizma Base, 230 g bacto tryptone, 10 g NaCl, 0.4 g cholesterol (95%)) seeded with 25 µL of OP50 Escherichia coli on each well. Each compound was added to the MYOB substrate before pouring to achieve the desired final concentrations of 30 µM or 60 µM after diffusion through the media. Synchronized young adult worms are transferred into each well using a platinum wire pick. A Leica MZ75 stereomicroscope was used to visualize the movement of worms on the solid substrate. The specific dominant locomotor phenotype (i.e. ‘Punc’, ‘paralyzed’, ‘coiler’ or ‘wild-type locomotion’) was scored after the touch on the head with a platinum wire over a ~3–5 s of observation. […] Coiled animals were not scored as paralyzed despite sometimes not responding to light touch.

[3] = tested on: Dirofilaria immitis microfilariae; experiment: Dirofilaria immitis microfilariae immobility assay (DiroImager, 72 h); conditions: for % effect (motility), DIROIM MF: Dirofilaria immitis microfilariae; for EC50: Dirofilaria immitis, 72 h, read-out: Dirofilaria immitis filariae EC50
In short: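 About 250 freshly purified microfilariae of the Missouri isolate per well in supplemented RPMI 1640, exposed to compound for 72 h. Motility scored by automated whole-plate optical imaging; medium with 1% DMSO as negative control.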

[4] = unc-17 (e245), 15 µM, adult worms
[5] = unc-17 (e245), 30 µM, adult worms
[6] = unc-17 (e245), 60 µM, adult worms
[7] = unc-17 (e245), 120 µM, adult worms
[8] = unc-17 (e245), 240 µM, adult worms

## O[C@@H]1CCCC[C@H]1N1CCC(c2ccccc2)CC1 (racemic) [vesamicol, reference compound]
[1]
  Ki: 0.021 µM
[2]; [4]
  Fraction Coiled: 0.65
  Fraction Jerky-Unc: 0.35
  Fraction No Phenotype: 0.00
  Fraction Parayzed: 0.00
[2]; [5]
  Fraction Coiled: 0.74
  Fraction Jerky-Unc: 0.24
  Fraction No Phenotype: 0.00
  Fraction Parayzed: 0.0185
[2]; [6]
  Fraction Coiled: 0.70
  Fraction Jerky-Unc: 0.24
  Fraction No Phenotype: 0.00
  Fraction Parayzed: 0.0556
[2]; [7]
  Fraction Coiled: 0.74
  Fraction Jerky-Unc: 0.14
  Fraction No Phenotype: 0.00
  Fraction Parayzed: 0.12
[2]; [8]
  Fraction Coiled: 0.72
  Fraction Jerky-Unc: 0.15
  Fraction No Phenotype: 0.00
  Fraction Parayzed: 0.13
[2]; unc-17 (md414), 15 µM
  Fraction Coiled: 0.00
  Fraction Jerky-Unc: 0.037
  Fraction No Phenotype: 0.96
  Fraction Parayzed: 0.00
[2]; unc-17 (md414), 30 µM
  Fraction Coiled: 0.00
  Fraction Jerky-Unc: 0.0741
  Fraction No Phenotype: 0.93
  Fraction Parayzed: 0.00
[2]; unc-17 (md414), 60 µM
  Fraction Coiled: 0.00
  Fraction Jerky-Unc: 0.24
  Fraction No Phenotype: 0.76
  Fraction Parayzed: 0.00
[2]; unc-17 (md414), 120 µM
  Fraction Coiled: 0.00
  Fraction Jerky-Unc: 0.43
  Fraction No Phenotype: 0.57
  Fraction Parayzed: 0.00
[2]; unc-17 (md414), 240 µM
  Fraction Coiled: 0.037
  Fraction Jerky-Unc: 0.61
  Fraction No Phenotype: 0.35
  Fraction Parayzed: 0.00

## O=[N+]([O-])c1ccc(N2CCN(CC3CC4C=CC3C4)CC2)cc1 (centres unmarked) [Nemacol-3]
[3]; 0.08 µM
  % effect (motility), DIROIM MF: 0%
[3]; 0.4 µM
  % effect (motility), DIROIM MF: 0%
[3]; 2 µM
  % effect (motility), DIROIM MF: 0%
[3]; 10 µM
  % effect (motility), DIROIM MF: 80%
[3]; 50 µM
  % effect (motility), DIROIM MF: 100%
[3]
  EC50: 9.1 µM

## O=[N+]([O-])c1ccc(N2CCN(CC3CC=CCC3)CC2)cc1 (centres unmarked) [Nemacol-4]
[3]; 0.08 µM
  % effect (motility), DIROIM MF: 0%
[3]; 0.4 µM
  % effect (motility), DIROIM MF: 0%
[3]; 2 µM
  % effect (motility), DIROIM MF: 0%
[3]; 10 µM
  % effect (motility), DIROIM MF: 100%
[3]; 50 µM
  % effect (motility), DIROIM MF: 100%
[3]
  EC50: 5.2 µM
